SMILES strings stand for the structures.

The values below come from patent US20230284621A1, “HERBICIDAL COMPOSITIONS” (PBI-Gordon Corporation, priority 2022, published 2023).

Data set [1] can be described thus: Chemical stability, ambient storage. Format: physicochemical. To be noted: for 17 Months (% Change from Initial): active ingredient in Professional Formulation 1, 17 Months (title: 14 Months); for 16 Months (% Change from Initial): active ingredient in Professional Formulation 2. As to the method: (§1) Formulations were prepared as described in Example I. Physically stable formulations (no settling or physical issues observed) were tested for chemical stability over various time spans and temperature conditions.

Data set [2] is described as follows: Chemical stability, accelerated 40° C. storage. Format: physicochemical. To be noted: for 30 Days @ 40° C. (% Change from Initial): 30 days at 40° C.; for 42 Days @ 40° C. (% Change from Initial): 42 days at 40° C. As to the method:
as §1
Formulations were prepared as described in Example III. Physically stable formulations (no settling or physical issues observed) were tested for chemical stability over various time spans and temperature conditions.

Setting [3] is: active ingredient in Consumer Formulation 3.
The mark [4] stands for this setting: active ingredient in Professional Formulation 1.
The mark [5] stands for this setting: active ingredient in Professional Formulation 2.
The mark [6] stands for this setting: active ingredient in Ready to Use Formulation 3.
[7] abbreviates: active ingredient in Ready-to-Use Formulation 2.

For `Cc1c(C(=O)c2c[nH]n(C)c2=O)ccc(S(C)(=O)=O)c1C1=NOCC1` [Topramazone, 4-[3-(4,5-dihydro-1,2-oxazol-3-yl)-2-methyl-4-methylsulfonylbenzoyl]-2-methyl-1H-pyrazol-3-one], the “17 Months (% Change from Initial)” value in data set [1] was −4.79%. For the same molecule, the “16 Months (% Change from Initial)” value in data set [1] is recorded as −4.40%. For the same molecule, the “30 Days @ 40° C. (% Change from Initial)” value in data set [2] (setting [3]) is −1.53%; in data set [2] (setting [6]), −0.46%; in data set [2] (setting [7]), 0.00%. Further, the “42 Days @ 40° C. (% Change from Initial)” value in data set [2] (setting [4]) is reported as −3.89%; in data set [2] (setting [5]), “+1.14%”.
As to `COc1c(Cl)ccc(Cl)c1C(=O)O` [Dicamba acid, 3,6-dichloro-2-methoxybenzoic acid], the “17 Months (% Change from Initial)” value in data set [1] is “+2.04%”. Further, the “16 Months (% Change from Initial)” value in data set [1] is on record as −0.80%. In addition, the “30 Days @ 40° C. (% Change from Initial)” value in data set [2] (setting [3]) is reported as 0.00%; in data set [2] (setting [6]) it was −1.79%; in data set [2] (setting [7]), “+1.10%”. Also, the “42 Days @ 40° C. (% Change from Initial)” value in data set [2] (setting [4]) is on record as −4.11%; in data set [2] (setting [5]) it was 0.00%.
With `O=C(O)COc1ccc(Cl)cc1Cl` [2,4-D acid], the “17 Months (% Change from Initial)” value in data set [1] is given as “+2.71%”. In addition, the “16 Months (% Change from Initial)” value in data set [1] is on record as −2.02%. Besides, the “30 Days @ 40° C. (% Change from Initial)” value in data set [2] (setting [3]) is on record as −0.21%; in data set [2] (setting [6]) it was “−.21%”; in data set [2] (setting [7]) it was “+0.83%”. Besides, the “42 Days @ 40° C. (% Change from Initial)” value is listed as “+0.66%” in data set [2] (setting [4]) and “+1.38%” in data set [2] (setting [5]).
For the molecule `Cc1nn(-c2cc(NS(C)(=O)=O)c(Cl)cc2Cl)c(=O)n1C(F)F` [Sulfentrazone, N-[2,4-dichloro-5-[4-(difluoromethyl)-3-methyl-5-oxo-1,2,4-triazol-1-yl]phenyl]methanesulfonamide], the “17 Months (% Change from Initial)” value in data set [1] is given as “+3.60%”. In addition, the “16 Months (% Change from Initial)” value in data set [1] is on record as “+5.71%”. Moreover, the figures for the “30 Days @ 40° C. (% Change from Initial)” value in data set [2] (setting [3]), in data set [2] (setting [6]) and in data set [2] (setting [7]) were 0.00%, −0.33% and −0.67%, respectively. In addition, the entries for the “42 Days @ 40° C. (% Change from Initial)” value in data set [2] (setting [4]) and in data set [2] (setting [5]) were “+1.30%” and “+0.29%”, respectively.
